For assay [1] the following is noted: cited from earlier work.
In a further assay the target is T1, LRH-1 LBD (Homo sapiens, UniProt O00482).
T1 construct: LRH-1 LBD (residues 299-541) in the pMSC7 vector was expressed in BL21 (DE3) pLysS E. coli; made in house; host or cells: E. coli BL21 (DE3) pLysS
Nature of the assay: Thermofluor (DSF) assay, purified LRH-1 LBD-His protein. Format: binding. The conditions noted are these: for ΔTm at 50 µM / ΔTm (mean +/− SEM) (° C.): 50 μM compound, relative to DLPC-bound LRH-1; for ΔTm at 50 µM: read-out: ΔTm (mean +/− SEM) (° C.); for stabilization of LRH-1-ligand complex / Tm shift: WT LRH-1. As for the experimental part: Thermofluor assays—Purified LRH-1 LBD-His protein (0.2 mg/ml) was incubated overnight with 50 μM of each compound at 4° C. The final DMSO concentration in the reactions was 1%. SYPRO orange dye (Invitrogen) was then added at a 1:1000 dilution. Reactions were heated at a rate of 0.5° C. per minute, using a StepOne Plus Real Time PCR System (ThermoFisher). […] Data were analyzed by first subtracting baseline fluorescence (ligands+SYPRO with no protein) and then fitting the curves using the Bolzman equation (GraphPad Prism, v6) to determine the Tm. […]
Background: DSF heats the sample and reads unfolding from a dye or from intrinsic fluorescence.

Another assay addresses T2, LRH-1 (Homo sapiens, UniProt O00482).
T2 construct: The transfected plasmids included full-length LRH-1 in a pCI vector; expressed in transfected cells; host or cells: HeLa
Nature of the assay: Luciferase reporter assay (SHP-luc) in HeLa cells transfected with full-length LRH-1. Format: cell-based. The conditions noted are these: for Relative Efficacy: fold increase over baseline (DMSO-treated cells) relative to the fold increase induced by RJW100. As for the experimental part: EC50 and Relative Activity values were calculated from luciferase reporter assays.
For orientation: In a reporter assay the amount or activity of a reporter protein is the signal.

The next assay deals with H390A-LRH-1 (Homo sapiens, UniProt O00482, H390A). The assay is described as follows: Luciferase reporter assay (SHP-luc), H390A mutant LRH-1. Particulars: His-390 mutated to alanine.
Sequence of H390A-LRH-1 (O00482 whole entry H390A): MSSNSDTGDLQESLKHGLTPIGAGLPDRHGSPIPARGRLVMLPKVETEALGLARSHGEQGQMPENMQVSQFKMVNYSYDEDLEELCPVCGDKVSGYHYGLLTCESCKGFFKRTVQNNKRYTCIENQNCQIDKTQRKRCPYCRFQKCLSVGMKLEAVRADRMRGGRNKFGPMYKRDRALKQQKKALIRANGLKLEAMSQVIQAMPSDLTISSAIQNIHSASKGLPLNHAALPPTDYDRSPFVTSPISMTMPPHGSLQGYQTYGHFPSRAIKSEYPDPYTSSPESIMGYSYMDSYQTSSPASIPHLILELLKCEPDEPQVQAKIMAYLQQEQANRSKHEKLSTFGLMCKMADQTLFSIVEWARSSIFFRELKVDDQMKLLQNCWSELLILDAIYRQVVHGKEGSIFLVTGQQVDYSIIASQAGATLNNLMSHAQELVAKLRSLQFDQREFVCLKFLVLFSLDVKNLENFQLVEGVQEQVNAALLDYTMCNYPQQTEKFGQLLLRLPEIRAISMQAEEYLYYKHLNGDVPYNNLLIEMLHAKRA
Where [2] appears, read: diabetic mice fed DLPC, mouse models of insulin resistance.
[3] abbreviates: HeLa cells, SHP-luc reporter, 24 hours, 0.03-30 μM.

The values that follow come from US12415770B2, “Modulators of liver receptor homologue 1 (LRH-1) and uses” (Emory University, priority 2017, dated 2025).

Entries after “also recorded” stand apart in the source; their conditions may differ.

T2 sequence (O00482 whole entry): as the sequence (O00482 whole entry H390A) above, with A390H counted along it
T1 sequence (O00482 299-541): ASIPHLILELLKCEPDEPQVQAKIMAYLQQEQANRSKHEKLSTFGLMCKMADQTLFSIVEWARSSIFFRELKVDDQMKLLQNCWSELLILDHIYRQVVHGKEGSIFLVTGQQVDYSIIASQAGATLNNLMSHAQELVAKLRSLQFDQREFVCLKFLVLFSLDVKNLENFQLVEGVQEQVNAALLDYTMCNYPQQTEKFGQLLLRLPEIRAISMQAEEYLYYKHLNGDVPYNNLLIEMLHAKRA

For the molecule `CCCCCCCCCCCC(=O)OC[C@H](COP(=O)([O-])OCC[N+](C)(C)C)OC(=O)CCCCCCCCCCC` [DLPC, dilauroyl-phosphatidylcholine], in assay [1] (DLPC treatment, mouse), the bile acid levels result is “increases bile acid levels”; the “hepatic triglycerides and serum glucose” value is “lowers hepatic triglycerides and serum glucose”. The “circulating insulin, triglycerides, and free fatty acids” value in assay [1] (diabetic mice fed DLPC) is listed as “reduced quantities”. In addition, in assay [1] (setting [2]), the “glucose tolerance / glucose homeostasis” value was “improves glucose homeostasis; also recorded: improved glucose tolerance” and the “hepatic fat accumulation / hepatic steatosis” value was “decreases hepatic steatosis; also recorded: reduced hepatic fat accumulation”.
For orientation: EC50 means the concentration that produces a half-maximal response. On to `C=C(c1ccccc1)[C@@]12CC[C@@H](O)[C@@H]1CC(CCCCCCCC(=O)O)=C2c1ccccc1` (relative stereo) [Compound 9f, 8-(6-exo-hydroxy-3-phenyl-3a-(1-phenylvinyl)-1,3a,4,5,6,6a-hexahydropentalen-2-yl)octanoic acid], for which, at LRH-1 LBD, the ΔTm at 50 µM is 4.4 °C. In addition, the EC50 on LRH-1 (setting [3]) was determined as 4000 nM. Besides, on LRH-1, the “Relative Efficacy” value is listed as 2.48.
Regarding `C=C(c1ccccc1)C12CCC(C#N)C1CC(CCCCCC)=C2c1ccccc1` (stereo not drawn) [Compound 32-endo, (Endo or Exo)-5-hexyl-4-phenyl-3a-(1-phenylvinyl)-1,2,3,3a,6,6a-hexahydropentalene-1-carbonitrile], on LRH-1 LBD, the “ΔTm (mean +/− SEM) (° C.)” value was “ns (Ns = Tm changes were less than 1° C.)”. Besides, the “Relative Efficacy” value at LRH-1 was 0.
For `C=C(c1ccccc1)[C@@]12CC[C@H](N=[N+]=[N-])C1CC(CCCCCC)=C2c1ccccc1` (stereo partly drawn) [Compound 31-endo, (Endo or Exo)-5-hexyl-4-phenyl-3a-(1-phenylvinyl)-1,2,3,3a,6,6a-hexahydropentalen-1-azide], the ΔTm at 50 µM at LRH-1 LBD was less than 1 °C. This molecule had an EC50 on LRH-1 (setting [3]) of 5000 nM. At LRH-1, the “Relative Efficacy” value stood at 0.70.
Turning to `CCC/C=C(\CCC)C1=C(c2ccccc2)[C@]2(Nc3ccccc3)CCC[C@@H]2C1` [GSK8470, reference compound], the “stabilization of LRH-1-ligand complex / Tm shift” value on LRH-1 LBD is “did not affect the melting profile”. Further, the “increase of LRH-1 activity compared with DMSO” value on LRH-1 (WT LRH-1, highest dose) is roughly 2.5 fold. Moreover, at LRH-1 (WT LRH-1, text), the EC50 is roughly 4000 nM. The “activation of H390A-LRH-1” value at H390A-LRH-1 is on record as “completely unable to activate”.
In the case of `C=C(c1ccccc1)C12CCC(O)C1CC(CCCCCCCCOP(=O)([O-])OCC[N+](C)(C)C)=C2c1ccccc1` (stereo not drawn) [Compound 9g, 8-(6-exo-hydroxy-3-phenyl-3a-(1-phenylvinyl)-1,3a,4,5,6,6a-hexahydropentalen-2-yl)octyl (2-(trimethylammonio)ethyl) phosphate], the ΔTm at 50 µM at LRH-1 LBD came out at 5.6 °C. At LRH-1 (setting [3]), this molecule registered a concentration giving a half-maximal response (EC50) greater than 30000 nM. Moreover, the “Relative Efficacy” value at LRH-1 is recorded as 1.12.
Take `C=C(c1ccccc1)C12CCC(O)C1CC(CCCCCCCCCCO)=C2c1ccccc1` (stereo not drawn) [Compound 11e, Exo-5-(10-hydroxydecyl)-4-phenyl-3a-(1-phenylvinyl)-1,2,3,3a,6,6a-hexahydropentalen-1-ol]: on LRH-1 LBD, the ΔTm at 50 µM is less than 1 °C. In addition, the EC50 at LRH-1 (setting [3]) worked out at 2000 nM. Further, on LRH-1, the “Relative Efficacy” value is on record as 2.83.
Take `C=C(c1ccccc1)[C@@]12CC[C@@H](N)C1CC(CCCCCC)=C2c1ccccc1` (stereo partly drawn) [Compound 33-exo, (Endo or Exo)-5-hexyl-4-phenyl-3a-(1-phenylvinyl)-1,2,3,3a, 6,6a-hexahydropentalen-1-amine]: the ΔTm at 50 µM on LRH-1 LBD is -3 °C. Besides, at LRH-1, the “Relative Efficacy” value turned out to be 0.56.
For the molecule `C=C(c1ccccc1)C12CCC(O)C1CC(CCCCCCCCCCCO)=C2c1ccccc1` (stereo not drawn) [Compound 12e, Exo-5-(11-hydroxyundecyl)-4-phenyl-3a-(1-phenylvinyl)-1,2,3,3a,6,6a-hexahydropentalen-1-ol], on LRH-1 LBD, the ΔTm at 50 µM is 4.7 °C. In addition, on LRH-1 (setting [3]), the concentration for a half-maximal effect (EC50) amounted to 2000 nM. The “Relative Efficacy” value on LRH-1 is reported as 0.87.
Consider `C=C(c1ccccc1)[C@@]12CC[C@H](OS(C)(=O)=O)C1CC(CCCCCC)=C2c1ccccc1` (stereo partly drawn) [Compound 30-endo, (Endo or Exo) 5-hexyl-4-phenyl-3a-(1-phenylvinyl)-1,2,3,3a,6,6a-hexahydropentalen-1-yl methanesulfonate], for which, on LRH-1 LBD, the ΔTm at 50 µM turned out to be 3 °C. The same molecule displayed an EC50 on LRH-1 (setting [3]) of 500 nM. On LRH-1, the “Relative Efficacy” value stood at 0.72.
Turning to `C=C(c1ccccc1)[C@@]12CCC(=O)C1CC(CCCCCC)=C2c1ccccc1` (stereo in doubt) [Compound 27, 5-hexyl-4-phenyl-3a-(1-phenylvinyl)-3,3a,6,6a-tetrahydropentalen-1 (2H)-one], at LRH-1 LBD, the ΔTm at 50 µM is less than 1 °C. Moreover, at LRH-1, the “Relative Efficacy” value is −0.42.
With `CCCCCCC1=C(c2ccccc2)[C@]2(C(C)c3ccccc3)CC[C@@H](O)C2C1` (stereo partly drawn) [Compound 39-exo, (Endo or Exo)-5-hexyl-4-phenyl-3a-(1-phenylethyl)-1,2,3,3a,6,6a-hexahydropentalen-1-ol], on LRH-1 LBD, the ΔTm at 50 µM is 0.1 °C. Besides, at LRH-1, the “Relative Efficacy” value was found to be 0.06.
Take `C=C(c1ccccc1)C12CCC(N)C1CC(CCCCCC)=C2c1ccccc1` (stereo not drawn) [Compound 33-endo, (Endo or Exo)-5-hexyl-4-phenyl-3a-(1-phenylvinyl)-1,2,3,3a, 6,6a-hexahydropentalen-1-amine]: the “ΔTm (mean +/− SEM) (° C.)” value at LRH-1 LBD is recorded as “ns (Ns = Tm changes were less than 1° C.)”. For the same molecule, the “Relative Efficacy” value at LRH-1 is given as 0.56.
Consider `C=C(c1ccccc1)[C@@]12CC[C@@H](O)C1CC(CCCCCCCCOC(C)=O)=C2c1ccccc1` (stereo partly drawn) [Compound 47-exo, (Exo or Endo) 8-(6-hydroxy-3-phenyl-3a-(1-phenylvinyl)-1,3a,4,5,6,6a-hexahydropentalen-2-yl)octyl acetate], for which the ΔTm at 50 µM at LRH-1 LBD amounted to 1.5 °C. This molecule also yielded an EC50 on LRH-1 (setting [3]) of 700 nM. Moreover, at LRH-1, the “Relative Efficacy” value worked out at 3.70.
Consider `C=C(c1ccccc1)C12CCC(O)C1CC(CCCCOP(=O)([O-])OCC[N+](C)(C)C)=C2c1ccccc1` (stereo not drawn) [Compound 5g, 4-(6-exo-hydroxy-3-phenyl-3a-(1-phenylvinyl)-1,3a,4,5,6,6a-hexahydropentalen-2-yl)butyl (2-(trimethylammonio)ethyl) phosphate], for which the ΔTm at 50 µM on LRH-1 LBD was less than 1 °C. Besides, the “EC50 (μM)” value on LRH-1 (setting [3]) was “cnc”. In addition, the “Relative Efficacy” value at LRH-1 was 0.33.
On to `C=C(c1ccccc1)C12CCC(O)C1CC(CCCCCCO)=C2c1ccccc1` (stereo not drawn) [Compound 7e, Exo-5-(6-hydroxyhexyl)-4-phenyl-3a-(1-phenylvinyl)-1,2,3,3a,6,6a-hexahydropentalen-1-ol], for which the ΔTm at 50 µM at LRH-1 LBD worked out at 3.3 °C. In addition, the half-maximal effective concentration (EC50) on LRH-1 (setting [3]) worked out at 1000 nM. For the same molecule, the “Relative Efficacy” value at LRH-1 was 1.74.
The corresponding values for `C=C(c1ccccc1)[C@@]12CC[C@@H](O)C1CC(CCCCCC)=C2c1cc(O)cc(F)c1` (mixture of isomers) [Compound 18f, (Exo)-4-(3-fluoro-5-hydroxyphenyl)-5-hexyl-3a-(1-phenylvinyl)-1,2,3,3a,6,6a-hexahydropentalen-1-ol] are less than 1 °C, greater than 30000 nM and 2.8.
As to `C=C(c1ccccc1)C12CCC(O)C1CC(CCCCCCCCCO)=C2c1ccccc1` (stereo not drawn) [Compound 10e, Exo-5-(9-hydroxynonyl)-4-phenyl-3a-(1-phenylvinyl)-1,2,3,3a,6,6a-hexahydropentalen-1-ol], at LRH-1 LBD, the ΔTm at 50 µM is 4.1 °C. Further, the EC50 on LRH-1 (setting [3]) was 1000 nM. Moreover, on LRH-1, the “Relative Efficacy” value is given as 1.30.
On to “((((endo or exo)-5-hexyl-4-phenyl-3a-(1-phenylvinyl)-1, 2, 3, 3a, 6,6a-hexahydropentalen-1-yl)oxy)carbonyl)sulfamic acid [Compound 40-endo]”, for which, at LRH-1 LBD, the “ΔTm (mean +/− SEM) (° C.)” value is 1.95 +/− 0.15 °C and the “stabilization of LRH-1-ligand complex / Tm shift” value is “greatly stabilized the protein-ligand complex”. For the same molecule, the EC50 at LRH-1 (setting [3]) was greater than 30000 nM. The “LRH-1 activation” value at LRH-1 (WT LRH-1) is given as “increased activation of LRH-1 compared to RJW100”. Further, the “Relative Efficacy” value at LRH-1 is listed as −0.2.
Regarding `C=C(c1ccccc1)C12CCC(O)C1CC(CCCCCCOP(=O)([O-])OCC[N+](C)(C)C)=C2c1ccccc1` (stereo not drawn) [Compound 7g, 6-(6-exo-hydroxy-3-phenyl-3a-(1-phenylvinyl)-1,3a,4,5,6,6a-hexahydropentalen-2-yl)hexyl(2-(trimethylammonio)ethyl) phosphate], the ΔTm at 50 µM at LRH-1 LBD was less than 1 °C. In addition, the “EC50 (μM)” value on LRH-1 (setting [3]) is reported as “cnc”. Also, the “Relative Efficacy” value at LRH-1 was 0.00.
With `C=C(c1ccccc1)C12CCC(O)C1CC(CCCC(=O)O)=C2c1ccccc1` (stereo not drawn) [Compound 5f, 4-(6-exo-hydroxy-3-phenyl-3a-(1-phenylvinyl)-1,3a,4,5,6,6a-hexahydropentalen-2-yl)butanoic acid], the ΔTm at 50 µM on LRH-1 LBD was found to be 2.3 °C. In addition, the “EC50 (μM)” value at LRH-1 (setting [3]) is reported as “cnc”. The “Relative Efficacy” value on LRH-1 was determined as 1.43.
